In US20200308103A1, “NOVEL CRYSTALS OF HYDROXAMIC ACID DERIVATIVE, PRODUCTION METHOD THEREOF, AND PHARMACEUTICAL COMPOSITION” (FUJIFILM Toyama Chemical Co., Ltd., priority 2016, published 2020):
Where two headings read alike, the source gives them in different places.

Experiments:
[1] = format: physicochemical
Protocol: The type I crystals and the type II crystals were mixed, suspended in a 40% aqueous acetonitrile solution, and stirred at 25° C.
(§1) The mixture was sampled over time, and the crystal form was measured by powder X-ray diffraction.

[2] = Stability (2): storage at 60° C. and relative humidity 75%, HPLC purity; format: physicochemical; conditions: relative humidity 75%; for Stability: conclusion in words
Protocol: The type I crystals, the type II crystals, and the type III crystals were stored under conditions of 60° C. and a relative humidity of 75%.
These crystals were sampled over time, and their purity was measured by HPLC.
(§2) Measurement wavelength: 254 nm
Column: Ascentis Express C18, particle size: 5 μm, 4.6 mm in inside diameter×150 mm in length
(§3) Column temperature: 40° C.
(§4) Mobile phase A: water/acetic acid=1000/1 solution
(§5) Mobile phase B: acetonitrile/acetic acid=1000/1 solution

[3] = format: physicochemical; remark: listed apart in the source
Protocol: The type I crystals and the type III crystals were mixed, suspended in acetonitrile, and stirred at 5, 25, or 40° C.
as §1

[4] = Solubility in aqueous sulfobutyl ether-β-cyclodextrin (SBEβCD) solution; format: physicochemical; conditions: for solubility: aqueous with cosolvent or surfactant or cyclodextrin, thermodynamic from solid, read-out: Solubility (dissolved / not dissolved)
Protocol: 32.4 mL of water for injection was added to 6.00 g of sulfobutyl ether-β-cyclodextrin (CYCLOLAB Cyclodextrin Research & Development Laboratory Ltd.) (hereinafter also referred to as “SBEβCD”), and the solution was then stirred at 25° C. for 10 minutes. After the dissolution of the substance had been confirmed by visual observation, the mixed solution was cooled to 10° C. Thereafter, 0.50 g of type I crystal or type II crystal was added to the reaction mixture, and the obtained solution was then heated stepwise, until the crystal was dissolved in the solution.
32.5 mL of water for injection was added to 6.00 g of SBEβCD, and the solution was then stirred at 25° C. for 10 minutes. After the dissolution of the substance had been confirmed by visual observation, the mixed solution was cooled to 0° C., 5° C. or 10° C. Thereafter, 0.48 g of type 111 crystal was added to the reaction mixture, and the obtained solution was then stirred, until the crystal was dissolved in the solution.

[5] = Stability (1): light irradiation, HPLC purity; format: physicochemical; conditions: for Stability against light: 1,200,000 lx·hr, conclusion in words
Protocol: Test Example 5 Stability (1) The type I crystals, the type II crystals, and the type Ill crystals were placed in a light stability tester and irradiated with light (1,200,000 lx·hr) (light source: D65 lamp (FLR20S-D-EDL-D65/M)).
The purity of the crystals of each type was measured by HPLC.
as §2
Column: Ascentis Express C18 (Sigma-Aldrich Japan), particle diameter: 5 μm, inner diameter 4.6 mm×length 150 mm
as §3, §4, §5

[6] = Hygroscopic properties (storage, weight change); format: physicochemical
Protocol: The type I crystals and the type III crystals were stored under conditions of 25° C. and a relative humidity of 97%.
These crystals were sampled over time, and the weights of the crystals were measured to determine the rates of change in weight.
Rate of change in weight (%)=((B−A)/A)×100
A: Weight of the crystals before the start of the test
B: Weight of the crystals after the start of the test

[7] = Physical stability (2): type I + type II crystals suspended in acetonitrile, crystal form by powder X-ray diffraction; format: physicochemical; conditions: acetonitrile (nonaqueous conditions), conclusion in words
Protocol: The type I crystals and the type 11 crystals were mixed, suspended in acetonitrile, and stirred at 5, 25, or 40° C.
as §1

[8] = target: uridyldiphospho-3-O-acyl-N-acetylglucosamine deacetylase (LpxC) (Pseudomonas aeruginosa, UniProt P47205); conditions: known from Patent Literature 1; cited from earlier work
uridyldiphospho-3-O-acyl-N-acetylglucosamine deacetylase (LpxC), sequence (P47205 whole entry): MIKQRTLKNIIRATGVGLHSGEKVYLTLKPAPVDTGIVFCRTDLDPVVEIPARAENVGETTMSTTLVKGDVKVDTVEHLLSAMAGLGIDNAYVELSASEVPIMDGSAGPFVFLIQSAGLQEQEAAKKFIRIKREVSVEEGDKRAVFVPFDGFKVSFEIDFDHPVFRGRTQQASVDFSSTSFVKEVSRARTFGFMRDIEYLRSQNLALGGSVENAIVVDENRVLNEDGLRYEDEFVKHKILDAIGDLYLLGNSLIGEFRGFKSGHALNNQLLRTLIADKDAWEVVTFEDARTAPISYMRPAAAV

[9] = after light irradiation 1,200,000 lx·hr, D65 lamp
[10] = light stability test, before start of test
[11] = 25° C., relative humidity 97%, 4 weeks

CNC(=O)[C@@](C)(C(=O)NO)N(C)C(=O)c1ccc(C#Cc2ccc([C@H](O)CO)cc2)cc1 [Type I crystals, (2S)-2-((4-((4-((1S)-1,2-dihydroxyethyl)phenyl)ethynyl)benzoyl)(methyl)amino)-N-hydroxy-N′,2-dimethylmalonamide, reference compound]
Physical stability / crystal transformation [1]: transformed to the type II crystals
HPLC purity (%) ([2]; 4 weeks): 98.7%
HPLC purity (%) ([2]; 7 weeks): 97.6%
HPLC purity (%) ([2]; 13 weeks): 90.4%
HPLC purity (%) ([2]; 13 weeks, listed as type I crystals): approximately 90%
HPLC purity (%) ([2]; before start of test): 99.2%
Physical stability / crystal transformation [3]: transformed to the type III crystals
Temperature at which the crystal was dissolved in the solution [4]: 25 °C
solubility ([4]; 10 °C, 10 ° C.): < 15.4 mg/mL
solubility ([4]; 15 °C, 15 ° C.): < 15.4 mg/mL
solubility ([4]; 20 °C, 20 ° C.): < 15.4 mg/mL
solubility ([4]; 25 °C, 25 ° C.): > 15.4 mg/mL
Stability against light [5]: reduced
HPLC purity (%) [5, 9]: 96.1%
HPLC purity (%) [5, 10]: 99.2%
Rate of change in weight (%) [6, 11]: 0.80%
Rate of change in weight (%) ([6]; 25° C., relative humidity 97%, 13 weeks): 1.09%
Rate of change in weight (%) ([6]; 25° C., relative humidity 97%, 13 weeks, listed as type I crystals): ≥ 1%
Physical stability / crystal transformation [7]: transformed to the type III crystals

CNC(=O)[C@@](C)(C(=O)NO)N(C)C(=O)c1ccc(C#Cc2ccc([C@H](O)CO)cc2)cc1 [Type II crystals, (2S)-2-((4-((4-((1S)-1,2-dihydroxyethyl)phenyl)ethynyl)benzoyl)(methyl)amino)-N-hydroxy-N′,2-dimethylmalonamide]
Physical stability / crystal transformation [1]: more stable than the type I crystals
HPLC purity (%) ([2]; 4 weeks): 98.7%
HPLC purity (%) ([2]; 7 weeks): 97.7%
HPLC purity (%) ([2]; 13 weeks): 91.2%
HPLC purity (%) ([2]; 13 weeks, listed as type II crystals): approximately 91%
HPLC purity (%) ([2]; before start of test): 99.1%
Stability [2]: more stable than the type I crystals
Temperature at which the crystal was dissolved in the solution [4]: 25 °C
Stability against light ([5]; listed as type 11 crystals): more stable against light than the type I crystals
HPLC purity (%) [5, 9]: 98.5%
HPLC purity (%) [5, 10]: 99.1%
Physical stability / crystal transformation [7]: transformed to the type III crystals

CNC(=O)[C@@](C)(C(=O)NO)N(C)C(=O)c1ccc(C#Cc2ccc([C@H](O)CO)cc2)cc1 [Type III crystals, (2S)-2-((4-((4-((1S)-1,2-dihydroxyethyl)phenyl)ethynyl)benzoyl)(methyl)amino)-N-hydroxy-N′,2-dimethylmalonamide]
HPLC purity (%) ([2]; 4 weeks): 99.3%
HPLC purity (%) ([2]; 7 weeks): 98.6%
HPLC purity (%) ([2]; 13 weeks): 94.8%
HPLC purity (%) ([2]; 13 weeks, listed as type III crystals): approximately 95%
HPLC purity (%) ([2]; before start of test): 99.5%
Stability [2]: more stable than the type I crystals
Stability ([2]; listed as type Ill crystals): most stable
Physical stability / crystal transformation [3]: more stable than the type I crystals
Temperature at which the crystal was dissolved in the solution [4]: ≤ 0 °C
solubility ([4]; 0 °C, 0 ° C.): > 14.8 mg/mL
solubility ([4]; 5 °C, 5 ° C.): > 14.8 mg/mL
Stability against light [5]: more stable against light than the type I crystals
HPLC purity (%) [5, 9]: 99.4%
HPLC purity (%) [5, 10]: 99.5%
Rate of change in weight (%) [6, 11]: 0.10%
Rate of change in weight (%) ([6]; 25° C., relative humidity 97%, 16 weeks): 0.03%
Rate of change in weight ([6]; 25° C., relative humidity 97%, time not stated): ≤ 0.1%
Hygroscopic properties ([6]; conclusion in words): low
Physical stability / crystal transformation [7]: more stable than the type I crystals and the type II crystals

CNC(=O)[C@@](C)(C(=O)NO)N(C)C(=O)c1ccc(C#Cc2ccc([C@H](O)CO)cc2)cc1 [compound A, (2S)-2-((4-((4-((1S)-1,2-dihydroxyethyl)phenyl)ethynyl)benzoyl)(methyl)amino)-N-hydroxy-N′,2-dimethylmalonamide]
LpxC inhibitory activity [8]: excellent
